Measured values: patent publication US8846947B2, “Benzimidazoles and related analogs as sirtuin modulators” (GlaxoSmithKline LLC, priority 2008, dated 2014)
Like-named read-outs stand apart in the source and are kept apart here.

Target: T1, SIRT1 (Homo sapiens, UniProt Q96EB6)
T1 sequence (Q96EB6 1-747): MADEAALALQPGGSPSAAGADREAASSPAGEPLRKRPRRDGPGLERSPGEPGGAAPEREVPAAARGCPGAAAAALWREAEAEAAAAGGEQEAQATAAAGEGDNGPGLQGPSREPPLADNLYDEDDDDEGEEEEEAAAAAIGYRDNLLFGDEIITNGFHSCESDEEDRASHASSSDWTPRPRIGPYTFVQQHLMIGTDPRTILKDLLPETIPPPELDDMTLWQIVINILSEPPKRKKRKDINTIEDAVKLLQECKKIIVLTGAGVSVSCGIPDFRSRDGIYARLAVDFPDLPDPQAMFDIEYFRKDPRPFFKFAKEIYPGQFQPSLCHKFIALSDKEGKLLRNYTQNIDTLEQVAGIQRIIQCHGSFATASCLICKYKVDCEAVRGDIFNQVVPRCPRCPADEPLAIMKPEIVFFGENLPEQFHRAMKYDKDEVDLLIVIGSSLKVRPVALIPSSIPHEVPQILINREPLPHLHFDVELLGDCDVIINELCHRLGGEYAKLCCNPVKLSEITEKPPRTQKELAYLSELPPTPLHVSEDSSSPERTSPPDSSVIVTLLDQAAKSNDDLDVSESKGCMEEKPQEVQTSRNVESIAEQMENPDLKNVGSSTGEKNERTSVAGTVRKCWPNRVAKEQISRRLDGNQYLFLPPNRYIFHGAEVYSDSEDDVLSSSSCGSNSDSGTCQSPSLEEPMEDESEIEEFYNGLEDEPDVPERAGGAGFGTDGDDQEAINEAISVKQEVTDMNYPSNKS
Assay: Mass spectrometry based SIRT1 deacetylase activation assay (acetylated p53-derived peptide substrate)
Format: biochemical

[1] = 0.5 μM peptide substrate, 120 μM βNAD+, 10 nM SIRT1, 25 min at 25° C.
[2] = 0.5 μM peptide substrate, 120 μM βNAD+, 10 nM SIRT1, 25 min at 25° C., read-out: EC1.5
[3] = 0.5 μM peptide substrate, 120 μM βNAD+, 10 nM SIRT1, 25 minutes at 25° C.

Row | Fold Act. (percent maximum fold activation) [1] | EC1.5 [2] [nM] | EC1.5 [3] | Fold Act. (percent maximum fold activation) [3] | Structure (SMILES) | other results
1 |  |  | B (EC1.5 1-25 uM) | A (Fold activation >200%) | O=C(Nc1ccccc1OCC(O)CO)c1cccc2[nH]c(-c3ccc(F)cc3C(F)(F)F)nc12 (centres unmarked) [Compound 727] | 
2 |  |  | A (EC1.5<1.0 uM) | A (Fold activation >200%) | O=C(Nc1cccnn1)c1cc(N2CCOCC2)cc2[nH]c(-c3ccc(F)cc3C(F)F)nc12 [Compound 752] | 
3 |  |  | A (EC1.5<1.0 uM) | A (Fold activation >200%) | O=C(Nc1cccc(CN2CCOCC2)n1)c1cccc2[nH]c(-c3ccccc3C(F)F)nc12 [Compound 817] | 
4 |  |  | A (EC1.5<1.0 uM) | A (Fold activation >200%) | O=C(Nc1ccccn1)c1cc(F)cc2[nH]c(-c3ccc(OC[C@@H](O)CO)cc3C(F)F)nc12 [Compound 840] | 
5 |  |  | A (EC1.5<1.0 uM) | A (Fold activation >200%) | O=C(Nc1cccc(OC[C@H](O)CO)c1)c1cncc2[nH]c(-c3ccc(Cl)cc3C(F)(F)F)nc12 [Compound 739] | 
6 |  |  | A (EC1.5<1.0 uM) | A (Fold activation >200%) | O=C(Nc1ccccn1)c1cc(F)cc2[nH]c(-c3ccc(OC[C@H](O)CO)cc3C(F)F)nc12 [Compound 830] | 
7 |  |  | A (EC1.5<1.0 uM) | A (Fold activation >200%) | O=C(Nc1cccc(OC[C@H](O)CO)c1)c1cncc2[nH]c(-c3ccc(Cl)cc3C(F)F)nc12 [Compound 715] | 
8 |  |  | A (EC1.5<1.0 uM) | A (Fold activation >200%) | Cc1cnc(NC(=O)c2cncc3[nH]c(-c4ccc(N5CCOCC5)cc4C(F)F)nc23)s1 [Compound 805] | 
9 | A (Fold activation >200%) | < 1000 |  |  | Cc1cc(NC(=O)c2cccc3[nH]c(-c4ccc(N5CCOCC5)cc4C(F)(F)F)nc23)n(C)n1 [Compound 592] | 
10 |  |  | A (EC1.5<1.0 uM) | A (Fold activation >200%) | O=C(Nc1ccccn1)c1cncc2[nH]c(-c3ccc(OC[C@H](O)CO)cc3C(F)(F)F)nc12 [Compound 763] | 
11 |  |  | A (EC1.5<1.0 uM) | A (Fold activation >200%) | O=C(Nc1ccccn1)c1cccc2[nH]c(-c3ccc(N4CC[C@H](F)C4)cc3C(F)(F)F)nc12 [Compound 607] | 
12 |  |  | A (EC1.5<1.0 uM) | A (Fold activation >200%) | O=C(Nc1nccs1)c1cc(N2CCOCC2)cc2[nH]c(-c3ccc(F)cc3C(F)F)nc12 [Compound 749] | 
13 | A (Fold activation >200%) | < 1000 |  |  | Cc1cc(C)nc(NC(=O)c2cccc3[nH]c(-c4ccc(N5CCOCC5)cc4C(F)(F)F)nc23)c1 [Compound 590] | 
14 |  |  | A (EC1.5<1.0 uM) | A (Fold activation >200%) | O=C(Nc1cccc(CN2CCCC2)n1)c1cccc2[nH]c(-c3ccc(Cl)cc3C(F)(F)F)nc12 [Compound 622] | 
15 |  |  | A (EC1.5<1.0 uM) | A (Fold activation >200%) | O=C(Nc1cccnc1)c1cc(F)cc2[nH]c(-c3ccc(OC[C@@H](O)CO)cc3C(F)F)nc12 [Compound 841] | 

More lines, now with the values behind:

Row | Structure (SMILES) | Fold Act. (percent maximum fold activation) [1] | EC1.5 [2] [nM] | EC1.5 [3] | Fold Act. (percent maximum fold activation) [3] | other results
16 | O=C(Nc1cccc2[nH]c(-c3ccc(Cl)cc3C(F)(F)F)nc12)c1ccccn1 [Compound 417] | A (Fold activation >200%) | 1000 to 25000 |  |  | 
17 | O=C(Nc1ccccn1)c1cccc2[nH]c(-c3cccc(-c4nnn[nH]4)c3)nc12 [Compound 361] |  |  |  |  | EC1.5: A (EC1.5<1.0 uM); Fold Act. (percent maximum fold activation): A (Fold activation >200%)
18 | Cc1cc(C)nc(NC(=O)c2cccc3[nH]c(-c4ccnn4-c4ccccc4)nc23)c1 [Compound 422] | A (Fold activation >200%) | < 1000 |  |  | 
19 | O=C(Nc1nccs1)c1cccc2[nH]c(-c3cccc(C(F)(F)F)c3)nc12 [Compound 202] |  |  |  |  | EC1.5: A (EC1.5<1.0 uM); Fold Act. (percent maximum fold activation): A (Fold activation >200%)
20 | O=C(Nc1nccs1)c1cccc2[nH]c(-c3ccc(C(F)(F)F)cc3)nc12 [Compound 209] |  |  |  |  | EC1.5: C (EC1.5 >25 uM); Fold Act. (percent maximum fold activation): B (Fold Activation <200%)
21 | CCCN1CCc2cc(-c3nc4c(C(=O)Nc5nccs5)cccc4[nH]3)ccc21 [Compound 444] | B (Fold Activation <200%) | > 25000 |  |  | 
22 | Cc1cnc(NC(=O)c2cccc3[nH]c(-c4ccccc4C(F)F)nc23)s1 [Compound 515] | A (Fold activation >200%) | < 1000 |  |  | 
23 | O=C(Nc1nccs1)c1cccc2[nH]c(-c3ccc(N4CCOCC4)cc3C(F)F)nc12 [Compound 551, 2-(2-(difluoromethyl)-4-morpholinophenyl)-N-(thiazol-2-yl)-1H-benzo[d]imidazole-4-carboxamide] | A (Fold activation >200%) | < 1000 |  |  | 
24 | Cc1nc(NC(=O)c2cccc3[nH]c(-c4cccc(C(F)(F)F)c4)nc23)sc1C [Compound 274] |  |  |  |  | EC1.5: A (EC1.5<1.0 uM); Fold Act. (percent maximum fold activation): A (Fold activation >200%)
25 | O=C(Nc1nccs1)c1cccc2[nH]c(-c3cc(F)cc(C(F)(F)F)c3)nc12 [Compound 210] |  |  |  |  | EC1.5: B (EC1.5 1-25 uM); Fold Act. (percent maximum fold activation): B (Fold Activation <200%)
26 | O=C(Nc1cccc2[nH]c(-c3cccc(C(F)(F)F)c3)nc12)c1ccccn1 [Compound 333] |  |  |  |  | EC1.5: B (EC1.5 1-25 uM); Fold Act. (percent maximum fold activation): A (Fold activation >200%)
27 | O=C(NC1CCOC1=O)c1cccc2[nH]c(-c3ccnn3-c3ccccc3)nc12 (centres unmarked) [Compound 443] | B (Fold Activation <200%) | > 25000 |  |  | 
28 | CC(C)N1CCN(c2cccc(-c3nc4c(C(=O)Nc5nccs5)cccc4[nH]3)c2)CC1 [Compound 529] | A (Fold activation >200%) | < 1000 |  |  | 
29 | O=C(Nc1ccccn1)c1cccc2[nH]c(-c3ccc(Cl)cc3C(F)F)nc12 [Compound 564] | A (Fold activation >200%) | 1000 to 25000 |  |  | 
30 | CC(C)(C)c1ccc(OCCN2CCOCC2)c(-c2nc3c(C(=O)Nc4ccccn4)cccc3[nH]2)c1 [Compound 548] | B (Fold Activation <200%) | < 1000 |  |  | 
31 | O=C(Nc1cccnc1)c1cccc2[nH]c(-c3cccc(OC4CCNCC4)c3)nc12 [Compound 567] | A (Fold activation >200%) | < 1000 |  |  | 
32 | O=C(NC1CCOC1=O)c1cccc2[nH]c(-c3ccc(Cl)cc3C(F)(F)F)nc12 (centres unmarked) [Compound 355] |  |  |  |  | EC1.5: B (EC1.5 1-25 uM); Fold Act. (percent maximum fold activation): A (Fold activation >200%)
33 | O=C(Nc1cccc(OC2CCNC2)c1)c1cccc2[nH]c(-c3ccccc3C(F)(F)F)nc12 (centres unmarked) [Compound 526] | A (Fold activation >200%) | < 1000 |  |  | 
34 | O=C(Nc1ccccn1)c1cccc2[nH]c(-c3ccc(Cl)cc3C(F)(F)F)nc12 [Compound 313] |  |  |  |  | EC1.5: A (EC1.5<1.0 uM); Fold Act. (percent maximum fold activation): A (Fold activation >200%)
35 | CS(=O)(=O)c1cc(Cl)ccc1-c1nc2c(C(=O)Nc3ccccn3)cccc2[nH]1 [Compound 522] | A (Fold activation >200%) | < 1000 |  |  | 
36 | O=C(Nc1nccs1)c1cncc2[nH]c(-c3ccccc3C(F)(F)F)nc12 [Compound 341, N-(thiazol-2-yl)-2-(2-(trifluoromethyl)phenyl)-3H-imidazo[4,5-c]pyridine-7-carboxamide] |  |  |  |  | EC1.5: A (EC1.5<1.0 uM); Fold Act. (percent maximum fold activation): A (Fold activation >200%)
37 | Cc1nc(-c2ccccc2)sc1-c1nc2c(C(=O)Nc3cccnc3)cccc2[nH]1 [Compound 410] | B (Fold Activation <200%) | < 1000 |  |  | 
38 | O=C(Nc1nccs1)c1cccc2[nH]c(-c3cc(F)ccc3C(F)F)nc12 [Compound 511] | A (Fold activation >200%) | 1000 to 25000 |  |  | 
39 | Cc1cnc(NC(=O)c2cccc3[nH]c(-c4ccc(F)cc4C(F)(F)F)nc23)s1 [Compound 357] |  |  |  |  | EC1.5: A (EC1.5<1.0 uM); Fold Act. (percent maximum fold activation): A (Fold activation >200%)
40 | O=C(NC1CCOCC1)c1cccc2[nH]c(-c3ccc(F)cc3C(F)(F)F)nc12 [Compound 436] | B (Fold Activation <200%) | 1000 to 25000 |  |  | 
41 | Cc1cc(NC(=O)c2cccc3[nH]c(-c4ccc(F)cc4C(F)(F)F)nc23)no1 [Compound 464] | A (Fold activation >200%) | < 1000 |  |  | 
42 | O=C(Nc1nccs1)c1cccc2[nH]c(-c3ccnn3-c3ccccc3)nc12 [Compound 254] |  |  |  |  | EC1.5: A (EC1.5<1.0 uM); Fold Act. (percent maximum fold activation): A (Fold activation >200%)
43 | O=C(Nc1nccs1)c1cccc2[nH]c(-c3ccccc3N3CCOCC3)nc12 [Compound 256] |  |  |  |  | EC1.5: B (EC1.5 1-25 uM); Fold Act. (percent maximum fold activation): A (Fold activation >200%)
